Experiments:
c-Myc protein = target: T1, c-Myc protein (Homo sapiens, UniProt P01106); test: Ability of compounds to degrade c-Myc protein in HL60 cells (ELISA); assay type: cell-based; settings: HL-60, 1 μM compound, 24 h, read-out: HL60 cells Protein degradation rate (1 μM)
T1 construct: endogenous in cells; host or cells: HL60 cells

HL60 cells = test: Anti-proliferation ability of compounds on HL60 cells (CTG); assay type: cell-based, human; settings: Homo sapiens, HL-60, 72 h, 3 days, CellTiter-Glo, read-out: HL60 cells Proliferation inhibitory activity
How it was run: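 HL60 cells (20000/well) exposed to serially diluted compounds (0.1% DMSO vehicle control) for 3 days. Viability read by CellTiter-Glo luminescence; IC50 fitted from inhibition rates.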

T1 sequence (P01106 whole entry): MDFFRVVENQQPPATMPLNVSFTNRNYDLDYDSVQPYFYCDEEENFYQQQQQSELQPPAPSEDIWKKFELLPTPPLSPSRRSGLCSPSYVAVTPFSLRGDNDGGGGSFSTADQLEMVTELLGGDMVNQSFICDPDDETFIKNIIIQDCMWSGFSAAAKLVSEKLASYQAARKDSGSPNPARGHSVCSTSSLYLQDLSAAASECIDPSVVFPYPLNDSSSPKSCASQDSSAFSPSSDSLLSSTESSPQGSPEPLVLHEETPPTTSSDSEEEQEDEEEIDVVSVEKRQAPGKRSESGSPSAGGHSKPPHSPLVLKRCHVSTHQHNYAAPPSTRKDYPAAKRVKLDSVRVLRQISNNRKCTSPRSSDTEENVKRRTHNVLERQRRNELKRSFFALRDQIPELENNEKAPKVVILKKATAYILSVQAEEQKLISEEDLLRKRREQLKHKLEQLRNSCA

Compound	inhibition at 1 µM (c-Myc protein) [%]	IC50 (HL60 cells) [µM]
CC(C)N(CCc1cccc2ccccc12)Cc1ccc(CNC(=O)c2ccc3c(c2)C(=O)N(C2CCC(=O)NC2=O)C3=O)cc1 (stereo not shown) [A85]	60 to 90	0.0213 ± 0.0109
CC(C)N(CCn1c2ccccc2c2cccnc21)Cc1ccc(CNC(=O)c2ccc3c(c2)C(=O)N(C2CCC(=O)NC2=O)C3=O)cc1 (stereo not shown) [A86]	60 to 90	0.0244 ± 0.0104
CC(C)N(CCc1cccc(Cl)c1Cl)Cc1ccc(CNC(=O)c2ccc3c(c2)C(=O)N(C2CCC(=O)NC2=O)C3=O)cc1 (stereo not shown) [A87]	60 to 90	0.0115
O=C1CCC(N2C(=O)c3ccc(C(=O)NCc4ccc(CN(CCc5cccc6ccccc56)C5CC5)cc4)cc3C2=O)C(=O)N1 (stereo not shown) [A88]	60 to 90	0.0831
O=C1CCC(N2C(=O)c3ccc(C(=O)NCc4ccc(CN(CCn5c6ccccc6c6cccnc65)C5CC5)cc4)cc3C2=O)C(=O)N1 (stereo not shown) [A89]	60 to 90	0.0811 ± 0.0369
COCCN(CCc1cccc2ccccc12)Cc1ccc(CNC(=O)c2ccc3c(c2)C(=O)N(C2CCC(=O)NC2=O)C3=O)cc1 (stereo not shown) [A90]	60 to 90	< 0.003
COCCN(CCn1c2ccccc2c2cccnc21)Cc1ccc(CNC(=O)c2ccc3c(c2)C(=O)N(C2CCC(=O)NC2=O)C3=O)cc1 (stereo not shown) [A91]	60 to 90	0.012 ± 0.0044
N#CCCN(CCc1cccc2ccccc12)Cc1ccc(CNC(=O)c2ccc3c(c2)C(=O)N(C2CCC(=O)NC2=O)C3=O)cc1 (stereo not shown) [A92]	60 to 90	0.44 ± 0.12
N#CCCN(CCn1c2ccccc2c2cccnc21)Cc1ccc(CNC(=O)c2ccc3c(c2)C(=O)N(C2CCC(=O)NC2=O)C3=O)cc1 (stereo not shown) [A93]	60 to 90	0.171 ± 0.0604
O=C1CCC(N2C(=O)c3ccc(C(=O)NCc4ccc(CN(CCc5cccc6ccccc56)c5ccccc5)cc4)cc3C2=O)C(=O)N1 (stereo not shown) [A94]	60 to 90	0.289 ± 0.0483
O=C1CCC(N2C(=O)c3ccc(C(=O)NCc4ccc(CN(CCn5c6ccccc6c6cccnc65)c5ccccc5)cc4)cc3C2=O)C(=O)N1 (stereo not shown) [A95]	60 to 90	0.0436 ± 0.044
O=C1CCC(N2C(=O)c3ccc(C(=O)NCc4ccc(CN(CCc5cccc6ccccc56)Cc5ccccc5)cc4)cc3C2=O)C(=O)N1 (stereo not shown) [A96]	60 to 90	0.96 ± 0.121
O=C1CCC(N2C(=O)c3ccc(C(=O)NCc4ccc(CN(CCn5c6ccccc6c6cccnc65)Cc5ccccc5)cc4)cc3C2=O)C(=O)N1 (stereo not shown) [A97]	60 to 90	0.169 ± 0.0507
CN(CCc1nccc2ccccc12)Cc1ccc(CNC(=O)c2ccc3c(c2)C(=O)N(C2CCC(=O)NC2=O)C3=O)cc1 (stereo not shown) [A98]	60 to 90	0.0112 ± 0.0013
CN(CCc1cccc(Cl)c1Cl)Cc1ccc(CNC(=O)c2ccc3c(c2)C(=O)N(C2CCC(=O)NC2=O)C3=O)cc1 (stereo not shown) [A99]	60 to 90	0.0198 ± 0.0048
CN(CCc1ccc(Cl)cc1Cl)Cc1ccc(CNC(=O)c2ccc3c(c2)C(=O)N(C2CCC(=O)NC2=O)C3=O)cc1 (stereo not shown) [A100]	60 to 90	0.0009
CN(CCc1ccc(Cl)c(Cl)c1)Cc1ccc(CNC(=O)c2ccc3c(c2)C(=O)N(C2CCC(=O)NC2=O)C3=O)cc1 (stereo not shown) [A101]	60 to 90	0.0004
O=C(Cc1cccc2ccccc12)NCc1ccc(CNC(=O)c2ccc3c(c2)C(=O)N(C2CCC(=O)NC2=O)C3=O)c(F)c1 (stereo not shown) [A103]	60 to 90	0.0058 ± 0.0025
O=C(Cn1c2ccccc2c2cccnc21)NCc1ccc(CNC(=O)c2ccc3c(c2)C(=O)N(C2CCC(=O)NC2=O)C3=O)c(F)c1 (stereo not shown) [A104]	60 to 90	0.0025 ± 0.0007
CN(CCc1cccc2ccccc12)Cc1ccc(CNC(=O)c2ccc3c(c2)C(=O)N(C2CCC(=O)NC2=O)C3=O)c(F)c1 (stereo not shown) [A105]	60 to 90	0.0083 ± 0.0019
CN(CCn1c2ccccc2c2cccnc21)Cc1ccc(CNC(=O)c2ccc3c(c2)C(=O)N(C2CCC(=O)NC2=O)C3=O)c(F)c1 (stereo not shown) [A106]	60 to 90	0.0042
O=C(Cc1cccc2ccccc12)NCc1ccc(CNC(=O)c2ccc3c(c2)C(=O)N(C2CCC(=O)NC2=O)C3=O)cc1F (stereo not shown) [A107]	60 to 90	0.0034
O=C(Cn1c2ccccc2c2cccnc21)NCc1ccc(CNC(=O)c2ccc3c(c2)C(=O)N(C2CCC(=O)NC2=O)C3=O)cc1F (stereo not shown) [A108]	60 to 90	0.0027 ± 0.0018
CN(CCc1cccc2ccccc12)Cc1ccc(CNC(=O)c2ccc3c(c2)C(=O)N(C2CCC(=O)NC2=O)C3=O)cc1F (stereo not shown) [A109]	60 to 90	0.0055 ± 0.0042
CN(CCn1c2ccccc2c2cccnc21)Cc1ccc(CNC(=O)c2ccc3c(c2)C(=O)N(C2CCC(=O)NC2=O)C3=O)cc1F (stereo not shown) [A110]	60 to 90	0.0044
COc1cc(CNC(=O)Cc2cccc3ccccc23)ccc1CNC(=O)c1ccc2c(c1)C(=O)N(C1CCC(=O)NC1=O)C2=O (stereo not shown) [A111]	60 to 90	0.0576 ± 0.0259

— patent publication US20240350643A1, “PROTEIN DEGRADATION AGENT” (SUZHOU KINTOR PHARMACEUTICALS, INC., priority 2021, published 2024)
